Experimental data taken from patent US7718808B2, “Thiazole derivatives” (Kyowa Hakko Kirin Co., Ltd., priority 2003, dated 2010).

`O=C(Nc1nc(-c2ccco2)c(C(=O)C2CCOCC2)s1)c1ccoc1` [Compound 516, N-[4-(2-Furyl)-5-(tetrahydropyran-4-ylcarbonyl)thiazol-2-yl]furan-3-carboxamide] gave a melting point of 236 to 238 °C. In the case of `O=C1CCC(C(=O)c2sc(NC(=O)c3ccncc3)nc2-c2ccco2)CC1` [Compound 448, N-[4-(2-Furyl)-5-(4-oxocyclohexylcarbonyl)thiazol-2-yl]pyridine-4-carboxamide], the melting point is reported as 206 to 212 °C. Compound `Cc1cnc(C(=O)Nc2nc(-c3ccco3)c(C(=O)c3ccccn3)s2)cn1` [Compound 230, N-[4-(2-Furyl)-5-(pyridine-2-ylcarbonyl)thiazol-2-yl]-5-methylpyrazine-2-carboxamide] has a melting point of 208 to 209 °C. With `O=C(Nc1nc(-c2ccco2)c(C(=O)C2CCOCC2)s1)c1ccc(CN2CCCCC2)cc1` [Compound 480, N-[4-(2-Furyl)-5-(tetrahydropyran-4-ylcarbonyl)thiazol-2-yl]-4-(piperidinomethyl)benzamide] the melting point was 160 to 162 °C. `O=C(CN1CCN(c2ccccc2)CC1)Nc1nc(-c2ccco2)c(C(=O)c2ccccn2)s1` [Compound 276, N-[4-(2-Furyl)-5-(pyridin-2-ylcarbonyl)thiazol-2-yl]-2-(4-phenylpiperazin-1-yl)acetamide] showed a melting point of 203 to 204 °C. In the case of `O=C(Nc1nc(-c2ccccc2)c(C(=O)c2ccccn2)s1)c1ccncc1` [Compound 634, N-[4-Phenyl-5-(pyridin-2-ylcarbonyl)thiazol-2-yl]pyridine-4-carboxamide], the melting point is reported as 231 to 235 °C. `CCn1cc(C(=O)c2sc(NC(=O)c3ccncc3)nc2-c2ccco2)ccc1=O` [Compound 362, N-[5-(1-Ethyl-2-oxo-1,2-dihydropyridin-5-ylcarbonyl)-4-(2-furyl)thiazol-2-yl]pyridine-4-carboxamide] showed a melting point of 295 to 296 °C. For `O=C(Nc1nc(-c2ccco2)c(-c2ccncc2)s1)c1ccnc(Cn2ccnc2)c1` [Compound 108, N-[4-(2-Furyl)-5-(4-pyridyl)thiazol-2-yl]-2-(imidazol-1-ylmethyl)pyridine-4-carboxamide], the melting point was 239 to 250 °C. `COCCCNC(=O)Nc1nc(-c2ccco2)c(C(=O)c2ccccn2)s1` [Compound 261, N-[4-(2-Furyl)-5-(pyridin-2-ylcarbonyl)thiazol-2-yl]-N′-(3-methoxypropyl)urea] showed a melting point of 169 to 170 °C. `O=C(Nc1nc(-c2ccco2)c(C(=O)C2CCOCC2)s1)c1ccccc1F` [Compound 466, 2-Fluoro-N-[4-(2-furyl)-5-(tetrahydropyran-4-ylcarbonyl)thiazol-2-yl]benzamide] showed a melting point of 172 to 176 °C. For `Cc1nc(C(=O)c2sc(NC(=O)c3ccncc3)nc2-c2ccco2)sc1C` [Compound 351, N-[5-(4,5-Dimethylthiazol-2-ylcarbonyl)-4-(2-furyl)thiazol-2-yl]pyridine-4-carboxamide], the melting point was 270 to 272 °C (dec.). For `Cc1cc(C(=O)Nc2nc(-c3ccco3)c(C(=O)C3CCC(=O)CC3)s2)ccn1` [Compound 449, N-[4-(2-Furyl)-5-(4-oxocyclohexylcarbonyl)thiazol-2-yl]-2-methylpyridine-4-carboxamide], the melting point was 108 to 115 °C. Work on `CCN(CC)C(=O)C1CCCN(CC(=O)Nc2nc(-c3ccco3)c(C(=O)c3ccccn3)s2)C1.Cl` (stereo not shown) yielded a melting point of 180 to 185 °C. Compound `O=C(Cc1ccccc1)Nc1nc(-c2ccco2)c(C(=O)C2CCOCC2)s1` [Compound 526, N-[4-(2-Furyl)-5-(tetrahydropyran-4-ylcarbonyl)thiazol-2-yl]-2-phenylacetamide] has a melting point of 140 to 142 °C. Compound `O=C(Nc1nc(-c2ccco2)c(C(=O)c2ccc(N3CCOCC3)nc2)s1)c1ccncc1` [Compound 324, N-[4-(2-Furyl)-5-(2-morpholinopyridin-5-ylcarbonyl)thiazol-2-yl]pyridine-4-carboxamide] has a melting point of 195 to 205 °C. Compound `CCn1ccc(C(=O)c2sc(NC(=O)c3ccncc3)nc2-c2ccco2)cc1=O` [Compound 369, N-[5-(1-Ethyl-2-oxo-1,2-dihydropyridin-4-ylcarbonyl)-4-(2-furyl)thiazol-2-yl]pyridine-4-carboxamide] has a melting point of 277 to 281 °C. `C[C@@H]1CN(CC(=O)Nc2nc(-c3ccco3)c(C(=O)c3ccccn3)s2)C[C@H](C)O1` [Compound 265, 2-(cis-2,6-Dimethylmorpholino)-N-[4-(2-furyl)-5-(pyridin-2-ylcarbonyl)thiazol-2-yl]acetamide] showed a melting point of 188 to 191 °C. In the case of `Cc1cc(C(=O)Nc2nc(-c3ccco3)c(C(=O)c3ccccn3)s2)ccn1` [Compound 212, N-[4-(2-Furyl)-5-(pyridin-2-ylcarbonyl)thiazol-2-yl]-2-methylpyridine-4-carboxamide], the melting point is reported as 187 to 188 °C. With `COCCN(C)c1cc(C(=O)Nc2nc(-c3ccco3)c(C(=O)c3ccccn3)s2)ccn1` [Compound 217, N-[4-(2-Furyl)-5-(pyridin-2-ylcarbonyl)thiazol-2-yl]-2-[N-(2-methoxyethyl)-N-methylamino]pyridine-4-carboxamide] the melting point was 114 to 117 °C. With `O=C(Nc1nc(-c2ccco2)c(C(=O)c2cnccn2)s1)c1ccncc1` [Compound 374, N-[4-(2-Furyl)-5-(pyrazin-2-ylcarbonyl)thiazol-2-yl]pyridine-4-carboxamide] the melting point was > 300 °C. Work on `CC(=O)N1CCN(CC(=O)Nc2nc(-c3ccco3)c(C(=O)c3ccccn3)s2)CC1` [Compound 275, 2-(4-Acetylpiperazin-1-yl)-N-[4-(2-furyl)-5-(pyridin-2-ylcarbonyl)thiazol-2-yl]acetamide] yielded a melting point of 170 to 171 °C. For `Cc1ccc(-c2nc(NC(=O)c3ccncc3)sc2-c2ccncc2)o1` [Compound 601, N-[4-(5-Methylfuran-2-yl)-5-(4-pyridyl)thiazol-2-yl]pyridine-4-carboxamide], the melting point was 274 to 276 °C. `CC(=O)c1ccc(C(=O)Nc2nc(-c3ccco3)c(C(=O)c3ccccn3)s2)cc1` [Compound 208, 4-Acetyl-N-[4-(2-furyl)-5-(pyridin-2-ylcarbonyl)thiazol-2-yl]benzamide] gave a melting point of 204 to 206 °C. Compound `O=C(CN1CCC(N2CCCC2)CC1)Nc1nc(-c2ccco2)c(C(=O)C2CCOCC2)s1` [Compound 551, N-[4-(2-Furyl)-5-(tetrahydropyran-4-ylcarbonyl)thiazol-2-yl]-2-[4-(1-pyrrolidinyl)piperidino]acetamide] has a melting point of 183 to 184 °C. For `COc1cccc(OC)c1C(=O)Nc1nc(-c2ccco2)c(C(=O)C2CCOCC2)s1` [Compound 486, N-[4-(2-Furyl)-5-(tetrahydropyran-4-ylcarbonyl)thiazol-2-yl]-2,6-dimethoxybenzamide], the melting point was 152 to 156 °C. Compound `CN(C)Cc1cc(C(=O)Nc2nc(-c3ccco3)c(C(=O)c3ccccc3)s2)ccn1` [Compound 141, N-[5-Benzoyl-4-(2-furyl)thiazol-2-yl]-2-(dimethylaminomethyl)pyridine-4-carboxamide] has a melting point of 205 to 209 °C. With `O=C(Nc1nc(-c2ccco2)c(C(=O)C2CCOCC2)s1)c1ccc(OC(F)(F)F)cc1` [Compound 477, N-[4-(2-Furyl)-5-(tetrahydropyran-4-ylcarbonyl)thiazol-2-yl]-4-(trifluoromethoxy)benzamide] the melting point was 177 to 180 °C. Compound `O=C(Nc1nc(-c2ccco2)c(C(=O)c2ccccn2)s1)c1ccoc1` [Compound 238, N-[4-(2-Furyl)-5-(pyridin-2-ylcarbonyl)thiazol-2-yl]furan-3-carboxamide] has a melting point of 187 to 189 °C.
